# In ChEMBL document CHEMBL1833857, “Histone deacetylase activators: N-acetylthioureas serve as highly potent and isozyme selective activators for human histone deacetylase-8 on a fluorescent substrate” (Bioorg Med Chem Lett, 2011):
# The source made the active and inactive calls. The calls are words filed in the database; no cut-off is given here.
# What was measured:
# [1] = target: T1, Histone deacetylase 11 (Homo sapiens) (UniProt Q96DB2); assay: Inhibition of HDAC11 using Fluor-de-Lys as substrate at 100 uM by spectrofluorometry
# T1 sequence (whole entry): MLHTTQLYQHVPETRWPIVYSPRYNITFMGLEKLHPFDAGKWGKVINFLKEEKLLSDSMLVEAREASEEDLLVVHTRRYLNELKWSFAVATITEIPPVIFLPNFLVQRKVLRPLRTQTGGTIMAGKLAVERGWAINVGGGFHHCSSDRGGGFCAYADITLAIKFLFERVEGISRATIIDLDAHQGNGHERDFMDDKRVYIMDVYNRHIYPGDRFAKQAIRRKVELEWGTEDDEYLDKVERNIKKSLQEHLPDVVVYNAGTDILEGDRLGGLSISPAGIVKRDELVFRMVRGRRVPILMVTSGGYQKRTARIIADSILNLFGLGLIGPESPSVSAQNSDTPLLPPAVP
# [2] = target: Histone deacetylase 1 (Homo sapiens) (UniProt Q13547); assay: Activation of HDAC1 using Fluor-de-Lys as substrate at 10 uM by spectrofluorometry
# [3] = target: T2, Protein deacetylase HDAC6 (Homo sapiens) (UniProt Q9UBN7); assay: Inhibition of HDAC6 using Fluor-de-Lys as substrate at 100 uM by spectrofluorometry
# T2 sequence (whole entry): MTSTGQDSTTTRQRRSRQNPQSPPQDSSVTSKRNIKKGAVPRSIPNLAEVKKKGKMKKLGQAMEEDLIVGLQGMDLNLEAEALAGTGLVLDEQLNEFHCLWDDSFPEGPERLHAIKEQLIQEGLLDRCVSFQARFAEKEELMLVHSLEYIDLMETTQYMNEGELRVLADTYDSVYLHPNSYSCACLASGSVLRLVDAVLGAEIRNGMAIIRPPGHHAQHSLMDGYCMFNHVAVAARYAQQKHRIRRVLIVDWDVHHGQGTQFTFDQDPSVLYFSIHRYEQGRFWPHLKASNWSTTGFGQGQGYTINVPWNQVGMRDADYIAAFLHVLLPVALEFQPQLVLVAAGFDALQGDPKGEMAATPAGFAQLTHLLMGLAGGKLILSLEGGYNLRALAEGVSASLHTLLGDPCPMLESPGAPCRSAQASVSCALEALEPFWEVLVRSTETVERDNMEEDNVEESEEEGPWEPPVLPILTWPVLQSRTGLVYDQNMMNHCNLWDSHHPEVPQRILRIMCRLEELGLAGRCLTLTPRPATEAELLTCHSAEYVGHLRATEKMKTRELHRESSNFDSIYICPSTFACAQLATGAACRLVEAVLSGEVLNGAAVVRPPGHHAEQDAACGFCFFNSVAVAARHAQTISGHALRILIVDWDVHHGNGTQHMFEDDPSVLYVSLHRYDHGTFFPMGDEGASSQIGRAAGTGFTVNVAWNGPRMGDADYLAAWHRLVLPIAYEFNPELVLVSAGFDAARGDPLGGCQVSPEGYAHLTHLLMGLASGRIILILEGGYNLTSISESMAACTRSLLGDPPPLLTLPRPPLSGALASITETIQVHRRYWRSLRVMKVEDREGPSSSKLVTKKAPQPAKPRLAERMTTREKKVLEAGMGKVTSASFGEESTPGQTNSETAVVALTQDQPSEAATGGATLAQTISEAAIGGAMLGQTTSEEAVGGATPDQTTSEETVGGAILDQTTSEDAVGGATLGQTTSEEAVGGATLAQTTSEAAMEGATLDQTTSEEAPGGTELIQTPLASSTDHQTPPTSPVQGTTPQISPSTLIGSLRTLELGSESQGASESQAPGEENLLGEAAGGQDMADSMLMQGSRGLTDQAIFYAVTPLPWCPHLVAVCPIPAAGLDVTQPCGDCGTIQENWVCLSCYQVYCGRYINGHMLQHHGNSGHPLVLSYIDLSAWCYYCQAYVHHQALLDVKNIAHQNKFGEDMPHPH
# [4] = target: Histone deacetylase 2 (Homo sapiens) (UniProt Q92769); assay: Inhibition of HDAC2 using Fluor-de-Lys as substrate at 100 uM by spectrofluorometry
# [5] = target: Histone deacetylase 3 (Homo sapiens) (UniProt O15379); assay: Inhibition of HDAC3 using Fluor-de-Lys as substrate at 100 uM by spectrofluorometry
# [6] = target: Histone deacetylase 4 (Homo sapiens) (UniProt P56524); assay: Inhibition of HDAC4 using trifluoroacetyl-lysine containing fluorogenic substrate at 100 uM by spectrofluorometry
# [7] = target: T3, Histone deacetylase 8 (Homo sapiens) (UniProt Q9BY41); assay: Activation of recombinant human HDAC8 assessed as ratio of the initial rate of reaction in the absence and presence of compound using Fluor-de-Lys as substrate at 10 uM by spectrofluorometry
# T3 sequence (whole entry): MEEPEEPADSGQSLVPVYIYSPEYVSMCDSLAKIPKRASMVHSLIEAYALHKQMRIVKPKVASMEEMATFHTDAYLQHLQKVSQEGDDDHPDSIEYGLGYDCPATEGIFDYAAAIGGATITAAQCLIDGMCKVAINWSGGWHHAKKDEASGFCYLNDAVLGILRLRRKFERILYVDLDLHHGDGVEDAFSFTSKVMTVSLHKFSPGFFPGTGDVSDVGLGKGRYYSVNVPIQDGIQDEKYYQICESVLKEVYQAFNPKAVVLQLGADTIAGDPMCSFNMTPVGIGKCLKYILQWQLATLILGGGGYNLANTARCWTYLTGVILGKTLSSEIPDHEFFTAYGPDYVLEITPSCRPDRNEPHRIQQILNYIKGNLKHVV
# [8] = target: Histone deacetylase 4 (Homo sapiens) (UniProt P56524); assay: Activation of HDAC4 using trifluoroacetyl-lysine containing fluorogenic substrate at 100 uM by spectrofluorometry
# [9] = target: T4, Polyamine deacetylase HDAC10 (Homo sapiens) (UniProt Q969S8); assay: Inhibition of HDAC10 using Fluor-de-Lys as substrate at 100 uM by spectrofluorometry
# T4 sequence (whole entry): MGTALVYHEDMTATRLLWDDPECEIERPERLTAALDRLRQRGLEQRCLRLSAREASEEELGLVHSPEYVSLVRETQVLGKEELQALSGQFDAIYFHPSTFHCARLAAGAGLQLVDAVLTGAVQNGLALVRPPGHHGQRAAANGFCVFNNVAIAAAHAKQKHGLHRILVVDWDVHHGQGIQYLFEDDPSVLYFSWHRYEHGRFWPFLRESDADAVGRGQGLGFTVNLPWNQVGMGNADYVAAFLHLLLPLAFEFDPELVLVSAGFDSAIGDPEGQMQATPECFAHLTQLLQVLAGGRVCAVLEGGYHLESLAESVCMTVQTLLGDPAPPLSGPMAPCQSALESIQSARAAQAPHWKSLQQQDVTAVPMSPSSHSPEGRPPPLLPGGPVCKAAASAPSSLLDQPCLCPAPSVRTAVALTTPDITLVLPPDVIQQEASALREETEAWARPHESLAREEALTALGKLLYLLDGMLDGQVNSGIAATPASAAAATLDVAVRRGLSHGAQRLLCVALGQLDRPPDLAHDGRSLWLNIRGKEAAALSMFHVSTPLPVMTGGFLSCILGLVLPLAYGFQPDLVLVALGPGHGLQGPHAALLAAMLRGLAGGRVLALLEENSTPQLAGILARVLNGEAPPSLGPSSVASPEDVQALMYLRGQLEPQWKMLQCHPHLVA
# [10] = target: Histone deacetylase 1 (Homo sapiens) (UniProt Q13547); assay: Inhibition of HDAC1 using Fluor-de-Lys as substrate at 100 uM by spectrofluorometry
# [11] = target: Histone deacetylase 4 (Homo sapiens) (UniProt P56524); assay: Activation of HDAC4 using trifluoroacetyl-lysine containing fluorogenic substrate at 10 uM by spectrofluorometry
# [12] = target: Histone deacetylase 1 (Homo sapiens) (UniProt Q13547); assay: Activation of HDAC1 using Fluor-de-Lys as substrate at 100 uM by spectrofluorometry
# [13] = target: Histone deacetylase 3 (Homo sapiens) (UniProt O15379); assay: Activation of HDAC3 using Fluor-de-Lys as substrate at 100 uM by spectrofluorometry
# [14] = target: Histone deacetylase 3 (Homo sapiens) (UniProt O15379); assay: Activation of HDAC3 using Fluor-de-Lys as substrate at 10 uM by spectrofluorometry
# [15] = target: Histone deacetylase 2 (Homo sapiens) (UniProt Q92769); assay: Activation of HDAC2 using Fluor-de-Lys as substrate at 100 uM by spectrofluorometry
# [16] = target: Histone deacetylase 2 (Homo sapiens) (UniProt Q92769); assay: Activation of HDAC2 using Fluor-de-Lys as substrate at 10 uM by spectrofluorometry
# [17] = target: T2, Protein deacetylase HDAC6 (Homo sapiens); assay: Activation of HDAC6 using Fluor-de-Lys as substrate at 10 uM by spectrofluorometry
# [18] = target: T2, Protein deacetylase HDAC6 (Homo sapiens); assay: Activation of HDAC6 using Fluor-de-Lys as substrate at 100 uM by spectrofluorometry
# [19] = target: T4, Polyamine deacetylase HDAC10 (Homo sapiens); assay: Activation of HDAC10 using Fluor-de-Lys as substrate at 100 uM by spectrofluorometry
# [20] = target: T4, Polyamine deacetylase HDAC10 (Homo sapiens); assay: Activation of HDAC10 using Fluor-de-Lys as substrate at 10 uM by spectrofluorometry
# Histone deacetylase 2 (Homo sapiens), sequence (Q92769 whole entry): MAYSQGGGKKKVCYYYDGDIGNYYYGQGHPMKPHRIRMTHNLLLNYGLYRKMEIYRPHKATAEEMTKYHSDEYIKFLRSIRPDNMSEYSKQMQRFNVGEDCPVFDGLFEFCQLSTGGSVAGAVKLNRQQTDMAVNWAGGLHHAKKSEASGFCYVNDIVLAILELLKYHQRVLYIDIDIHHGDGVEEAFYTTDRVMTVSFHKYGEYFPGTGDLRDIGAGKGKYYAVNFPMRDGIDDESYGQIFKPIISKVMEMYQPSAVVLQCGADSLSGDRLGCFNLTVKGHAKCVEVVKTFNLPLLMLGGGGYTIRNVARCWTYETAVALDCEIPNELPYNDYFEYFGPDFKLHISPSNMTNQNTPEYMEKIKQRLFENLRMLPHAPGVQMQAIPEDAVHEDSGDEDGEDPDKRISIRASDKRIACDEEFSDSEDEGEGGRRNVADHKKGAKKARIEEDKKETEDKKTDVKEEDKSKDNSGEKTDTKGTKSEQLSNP
# Histone deacetylase 1 (Homo sapiens), sequence (Q13547 whole entry): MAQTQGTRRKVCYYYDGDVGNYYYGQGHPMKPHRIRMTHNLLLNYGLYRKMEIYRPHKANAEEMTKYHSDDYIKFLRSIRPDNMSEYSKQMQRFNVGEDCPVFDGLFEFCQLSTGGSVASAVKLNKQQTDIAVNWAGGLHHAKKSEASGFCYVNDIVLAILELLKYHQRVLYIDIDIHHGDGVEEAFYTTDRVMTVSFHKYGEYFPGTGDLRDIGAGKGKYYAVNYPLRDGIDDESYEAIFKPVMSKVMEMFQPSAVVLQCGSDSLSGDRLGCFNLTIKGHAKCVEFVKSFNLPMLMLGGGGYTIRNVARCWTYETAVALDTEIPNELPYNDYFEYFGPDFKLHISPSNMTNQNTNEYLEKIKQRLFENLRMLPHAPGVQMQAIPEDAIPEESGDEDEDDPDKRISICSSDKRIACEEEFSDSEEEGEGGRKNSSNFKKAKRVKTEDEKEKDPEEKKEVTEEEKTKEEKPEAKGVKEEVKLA
# Histone deacetylase 3 (Homo sapiens), sequence (O15379 whole entry): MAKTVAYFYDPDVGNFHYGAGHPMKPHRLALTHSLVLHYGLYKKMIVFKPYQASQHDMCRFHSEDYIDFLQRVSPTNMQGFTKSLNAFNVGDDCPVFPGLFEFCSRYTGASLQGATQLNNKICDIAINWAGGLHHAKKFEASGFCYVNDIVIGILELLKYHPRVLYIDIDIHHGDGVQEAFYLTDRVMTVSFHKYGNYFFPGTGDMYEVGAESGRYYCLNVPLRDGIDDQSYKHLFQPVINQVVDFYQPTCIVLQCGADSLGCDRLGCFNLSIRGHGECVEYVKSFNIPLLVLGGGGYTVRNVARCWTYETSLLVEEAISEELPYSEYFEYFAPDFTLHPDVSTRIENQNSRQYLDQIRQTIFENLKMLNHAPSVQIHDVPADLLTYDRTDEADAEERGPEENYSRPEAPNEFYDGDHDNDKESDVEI
# Histone deacetylase 4 (Homo sapiens), sequence (P56524 whole entry): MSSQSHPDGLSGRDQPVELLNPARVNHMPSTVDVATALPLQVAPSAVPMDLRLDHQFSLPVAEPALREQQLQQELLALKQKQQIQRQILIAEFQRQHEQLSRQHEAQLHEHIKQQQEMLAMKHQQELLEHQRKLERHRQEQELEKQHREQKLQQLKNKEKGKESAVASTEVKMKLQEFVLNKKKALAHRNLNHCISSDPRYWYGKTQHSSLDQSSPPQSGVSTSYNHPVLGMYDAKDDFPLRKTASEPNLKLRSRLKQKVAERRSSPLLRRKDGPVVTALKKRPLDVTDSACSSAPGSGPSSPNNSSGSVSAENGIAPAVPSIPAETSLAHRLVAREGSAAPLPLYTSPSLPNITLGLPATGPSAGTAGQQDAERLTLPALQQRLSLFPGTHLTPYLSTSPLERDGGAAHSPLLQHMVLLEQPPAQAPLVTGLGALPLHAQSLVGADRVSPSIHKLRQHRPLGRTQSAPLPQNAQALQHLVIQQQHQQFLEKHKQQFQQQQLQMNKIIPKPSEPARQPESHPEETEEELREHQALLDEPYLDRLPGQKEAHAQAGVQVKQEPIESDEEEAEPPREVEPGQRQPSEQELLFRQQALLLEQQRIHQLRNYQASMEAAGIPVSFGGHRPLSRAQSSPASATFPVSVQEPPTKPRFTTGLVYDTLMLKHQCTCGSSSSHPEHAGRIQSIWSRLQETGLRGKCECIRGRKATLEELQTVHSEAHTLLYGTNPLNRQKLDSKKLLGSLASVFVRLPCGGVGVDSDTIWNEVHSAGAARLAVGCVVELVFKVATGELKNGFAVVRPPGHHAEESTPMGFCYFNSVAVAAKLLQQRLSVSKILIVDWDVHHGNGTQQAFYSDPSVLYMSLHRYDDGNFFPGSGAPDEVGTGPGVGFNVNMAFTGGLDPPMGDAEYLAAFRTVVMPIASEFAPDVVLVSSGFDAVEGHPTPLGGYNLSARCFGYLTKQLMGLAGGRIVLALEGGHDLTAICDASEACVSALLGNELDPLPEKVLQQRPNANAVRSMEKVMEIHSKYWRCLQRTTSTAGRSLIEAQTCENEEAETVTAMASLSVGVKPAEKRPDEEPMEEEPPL
inhibition [1] [%],Activity [2],inhibition [3],inhibition [4],inhibition [5],inhibition [6],fold change (FC) [7],Activity [8],inhibition [9],inhibition [10],Activity [11],Activity [12],Activity [13],Activity [14],Activity [15],Activity [16],Activity [17],Activity [18],Activity [19],Activity [20],Compound
10,inactive,5%,6%,5%,inactive,8.4,inactive,10%,inactive,inactive,inactive,,,,,,,,,COc1cc(NC(=S)NC(=O)c2ccccc2)cc(OC)c1
10,inactive,10%,inactive,inactive,inactive,1.1,inactive,10%,inactive,inactive,inactive,inactive,inactive,inactive,inactive,,,,,O=C(NC(=S)NCc1cc(C(F)(F)F)cc(C(F)(F)F)c1)c1ccccc1
14,inactive,inactive,inactive,inactive,inactive,1,inactive,5%,inactive,inactive,inactive,inactive,inactive,inactive,inactive,inactive,inactive,,,O=C(NC(=S)NCc1ccccc1)c1ccccc1F
6,,inactive,inactive,inactive,inactive,3,inactive,inactive,5%,inactive,,inactive,inactive,inactive,inactive,inactive,inactive,inactive,inactive,O=C(NC(=S)NCc1ccc(F)cc1)c1ccccc1
10,inactive,inactive,5%,inactive,inactive,4.5,inactive,10%,inactive,inactive,inactive,inactive,inactive,,,inactive,inactive,,,C[C@H](NC(=S)NC(=O)c1ccccc1)c1ccccc1
8,inactive,45%,6%,6%,inactive,1.5,inactive,5%,,inactive,4%,,,,,,,,,C[C@@H](NC(=S)NC(=O)c1ccccc1)c1ccccc1
12,inactive,10%,9%,5%,inactive,3,inactive,47%,inactive,inactive,inactive,,,,,,,,,O=C(NC(=S)NCc1cccs1)c1ccccc1
10,inactive,inactive,10%,inactive,inactive,1.1,inactive,5%,inactive,inactive,inactive,inactive,inactive,,,inactive,inactive,,,O=C(NC(=S)NCc1ccc(-c2ccccc2)cc1)c1ccccc1
